The subject of one data set is RSV. Description: microbe, parasite or virus in culture. It is filed as cell-based. As to conditions: human respiratory syncytial virus, MA104, MA-104 cells.
The test system of data set [1] is murine norovirus (MNV) CR3. Description: Study No. 1: efficacy against Murine Norovirus infection in mice. The format is in vivo, BALB/c mice. The settings on record: for murine norovirus titer in tissue and feces: 30, 100, 300 mg/kg/day BID oral gavage from day −2, 10^6 PFU, day 3 post-infection. On the procedure: Study No. 1 evaluated the efficacy of twice-daily dosing of Compound 1 over a range of 30 mg/kg to 300 mg/kg, initiated prior to infection of mice with 10^6 plaque-forming units (PFU) of murine norovirus (MNV) CR3. A control group of mice treated with vehicle was also included. All doses were started 2 days (39 hours) prior to infection.
Compound was delivered twice daily at indicated doses via oral gavage. A control group of mice treated with vehicle only was also included. Mice were infected with murine norovirus by pipetting virus into mouth 2 days after the first dose. Mice were housed on metal grates and combined fecal output was collected every 24 hours. Tissues (distal ileum and cecum) and individual fecal pellets were harvested on day 3 post inoculation. All samples were titered by plaque assay.
For both studies, compound was delivered via oral gavage at the indicated doses and times prior to infection. Mice were infected with murine norovirus CR3 by pipetting virus into mouth 3 hours after the first day 0 dose of Compound 1 was given. Following infection, compound was administered twice daily through day 3 post-infection.
The mice used were ˜20 gram, 8-12 week old female BALB/c mice in groups of 5. Mice were housed on metal grates and combined fecal output was collected every 24 hours, starting at day −1. Tissues (˜1 cm of distal ileum and cecum) and individual fecal pellets were harvested on day 3 post-infection and weighed. All samples were titered by plaque assay (qRT-PCR as back-up when titers are too low); titers were normalized to gram of tissue or feces. On day 3, duplicate samples of tissue (˜1 cm of distal ileum and cecum) were collected, rinsed in PBS, and snap frozen; serum and a duplicate feces sample were also collected on day 3 and snap frozen; this set of sample was submitted for MS analysis to assess drug bioavailability.

The nature of data set [2]: Cytotoxicity in lymphocyte assays, Akata cells. It is filed as cell-based. The settings on record: human, parallel to EBV assay. On the procedure: (§1) Every antiviral assay included a parallel cytotoxicity assay with the same cells used for each virus, the same cell number, the same drug concentrations, and the same incubation times to provide the same drug exposure. To ensure that the cytotoxicity of all compounds could be compared directly, a standard neutral red uptake cytotoxicity assay for all compounds in confluent HFF cells with a 7 d incubation period was performed.
(§2) Cytotoxicity in Lymphocyte Assays:
(§3) Cell viability in all assays with lymphocytes was assessed with a luminescent Cell Viability Assay. Briefly, assay plates were incubated at ambient temperature for 30 min then luminescent reagent was added to each well and the plates were mixed to lyse the cells. Plates were then incubated for at ambient temperature and the luminescence was quantified on a luminometer. Standard methods were used to calculate drug concentrations that inhibited the proliferation of cells by 50% (CC50).
(§4) Cell viability in all assays with lymphocytes was assessed with the CellTiter-Glo Luminescent Cell Viability Assay (Promega). […] Plates were then incubated for an additional 10 min at ambient temperature and the luminescence was quantified on a luminometer. […]

In the next data set the test system is mouse norovirus. Description: Mouse Norovirus (MNV) assay in RAW cells.
A short description of data set [3]: Parallel cytotoxicity assay in A549 cells. As to conditions: human, parallel to AdV assay. The format is cell-based. On the procedure: as §1
The primary screen was a cytopathic effect (CPE) reduction assay. Briefly, cultures of cells were infected with virus in the presence of test compounds and incubated for 4-7 days (depending on the specific virus/cells). […] Therefore, antiviral effect, or cytoprotection, was observed when compounds prevent virus replication. […] Cytoprotection and compound cytotoxicity were assessed by MTS dye reduction. The percent reduction in viral CPE (antiviral activity) and percent cell viability (cytotoxicity) were determined and reported.
The primary screen was a cytopathic effect (CPE) reduction assay. […] Cytoprotection and compound cytotoxicity were assessed by MTS (CellTiter®96 Reagent, Promega, Madison Wis.) dye reduction. The percent reduction in viral CPE (antiviral activity) and percent cell viability (cytotoxicity) were determined and reported.

Data set [4] is described as follows: Cytotoxicity in lymphocyte assays, MOLT-3 cells. The format is cell-based. The settings on record: human, parallel to HHV-6B assay. On the procedure:
as §1, §2, §3, §4

From patent publication US9708359B2, “Pyrrolopyrimidine nucleosides and analogs thereof” (Chimerix, Inc., priority 2015, dated 2017) come the findings set out here.

pEC50: −log10 of the molar value. Entries after “also recorded” stand apart in the source; their conditions may differ. Where two headings read alike, the source gives them in different places.

Take `Cc1nc(N)c2c(C(N)=O)cn([C@@H]3O[C@H](CO)[C@@H](O)[C@H]3O)c2n1` [Compound 1, 4-amino-7-((2R,3R,4S,5R)-3,4-dihydroxy-5-(hydroxymethyl)tetrahydrofuran-2-yl)-2-methyl-7H-pyrrolo[2,3-d]pyrimidine-5-carboxamide]: the negative-log EC50 (pEC50) (in general, the EC50 on a negative log10 scale, so that one unit is a factor of ten) is 4.51 in the data set on RSV; ~5.68 with mouse norovirus (Norovirus, in Mus musculus, read-out: EC50 value against mouse norovirus, in vitro, unit inferred); 5.70 with mouse norovirus (Norovirus, in Mus musculus, read-out: MNV Mean EC50, RAW cells); 5.44 to 5.77 in the data set with mouse norovirus (murine norovirus, Table 7). Moreover, the “murine norovirus titer in tissue and feces” value in data set [1] was “effective in reducing the titer of murine norovirus in both tissue and feces”; in data set [1] (listed as compound 1), “reduce the viral load in mice infected with murine norovirus in a dose-dependent manner; also recorded: showed a reduction in PFU/gram with increasing dose”. Besides, the “virus titer in tissue and feces compared with vehicle” value in data set [1] (twice-daily 300 mg/kg) is on record as “significant reduction in virus titer”. For the same molecule, the results for the CC50 in data set [2], in data set [3] and in data set [4] were > 60 µM, > 100 µM and 44.7 µM, respectively.
